pIC50: −log10 of the molar value. Activity calls are given as the source filed them.
Legend:
[1] = target: T1, Replicative DNA helicase DnaB (Mycobacterium tuberculosis, UniProt P9WMR3); experiment: DnaB intein splicing inhibitors, dose response, biochemical, cell-free fluorescence (AID 449749); type: functional
T1 sequence (P9WMR3 whole entry): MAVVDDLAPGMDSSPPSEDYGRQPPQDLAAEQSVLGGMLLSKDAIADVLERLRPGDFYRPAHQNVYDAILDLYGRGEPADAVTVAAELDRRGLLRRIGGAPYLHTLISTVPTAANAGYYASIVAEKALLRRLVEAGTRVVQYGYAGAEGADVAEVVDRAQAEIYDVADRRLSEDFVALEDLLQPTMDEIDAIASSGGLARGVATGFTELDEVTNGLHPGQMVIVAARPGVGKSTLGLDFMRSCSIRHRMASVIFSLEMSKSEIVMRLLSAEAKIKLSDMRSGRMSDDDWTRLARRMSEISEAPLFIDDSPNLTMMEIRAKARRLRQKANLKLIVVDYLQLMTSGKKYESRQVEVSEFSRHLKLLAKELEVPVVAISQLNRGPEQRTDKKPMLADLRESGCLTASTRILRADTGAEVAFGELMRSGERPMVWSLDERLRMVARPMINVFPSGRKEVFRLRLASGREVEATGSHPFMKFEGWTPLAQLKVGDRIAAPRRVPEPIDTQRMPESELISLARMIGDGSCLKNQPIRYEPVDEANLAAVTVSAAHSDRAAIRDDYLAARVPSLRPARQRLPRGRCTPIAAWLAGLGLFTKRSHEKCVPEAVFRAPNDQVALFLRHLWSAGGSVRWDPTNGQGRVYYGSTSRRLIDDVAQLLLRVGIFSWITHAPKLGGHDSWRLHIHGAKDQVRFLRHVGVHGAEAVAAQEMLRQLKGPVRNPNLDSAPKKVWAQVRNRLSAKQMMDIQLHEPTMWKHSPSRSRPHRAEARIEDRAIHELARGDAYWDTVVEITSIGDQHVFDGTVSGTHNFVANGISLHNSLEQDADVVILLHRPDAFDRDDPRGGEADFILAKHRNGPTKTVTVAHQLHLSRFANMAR

Protein RecA = target: T2, Protein RecA (Mycobacterium tuberculosis, UniProt P9WHJ3); experiment: Fluorescence Cell-Free Homogeneous Dose Retest to Identify Inhibitors of RecA-Intein Splicing Activity. [Related pubchem assays (depositor defined):AID2097, AID2223, AID489010, AID492950]; type: functional
T2 sequence (P9WHJ3 whole entry): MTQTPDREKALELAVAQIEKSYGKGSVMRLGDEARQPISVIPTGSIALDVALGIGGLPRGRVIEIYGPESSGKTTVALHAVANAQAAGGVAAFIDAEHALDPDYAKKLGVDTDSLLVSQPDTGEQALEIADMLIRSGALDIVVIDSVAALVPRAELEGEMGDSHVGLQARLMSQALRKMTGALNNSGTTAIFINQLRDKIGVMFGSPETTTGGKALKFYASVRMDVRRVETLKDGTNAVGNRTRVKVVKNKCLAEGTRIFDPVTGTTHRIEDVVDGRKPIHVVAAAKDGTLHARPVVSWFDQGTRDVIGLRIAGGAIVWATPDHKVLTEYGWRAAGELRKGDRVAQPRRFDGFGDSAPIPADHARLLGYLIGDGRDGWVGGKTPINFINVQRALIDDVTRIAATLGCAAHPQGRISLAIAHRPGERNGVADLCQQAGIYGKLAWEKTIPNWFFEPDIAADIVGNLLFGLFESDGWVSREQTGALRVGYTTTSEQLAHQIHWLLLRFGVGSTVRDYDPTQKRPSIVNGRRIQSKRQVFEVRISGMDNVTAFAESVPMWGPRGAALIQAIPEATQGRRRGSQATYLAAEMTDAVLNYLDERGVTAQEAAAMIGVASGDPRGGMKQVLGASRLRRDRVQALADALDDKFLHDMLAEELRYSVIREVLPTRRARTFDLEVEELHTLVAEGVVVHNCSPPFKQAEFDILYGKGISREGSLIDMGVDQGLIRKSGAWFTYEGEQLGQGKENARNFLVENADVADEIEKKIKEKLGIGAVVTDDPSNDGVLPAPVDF

[2] = target: T3, Sentrin-specific protease 8 (Homo sapiens, UniProt Q96LD8); type: functional
T3 sequence (Q96LD8 whole entry): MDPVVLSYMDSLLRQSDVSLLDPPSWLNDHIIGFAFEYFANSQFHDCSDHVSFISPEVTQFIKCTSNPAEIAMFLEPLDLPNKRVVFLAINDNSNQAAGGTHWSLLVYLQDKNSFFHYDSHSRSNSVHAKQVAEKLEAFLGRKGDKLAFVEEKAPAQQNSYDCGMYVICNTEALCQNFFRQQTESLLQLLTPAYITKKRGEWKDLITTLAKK

[3] = target: T3, Sentrin-specific protease 8; type: functional; remark: listed apart in the source
cells [4] = type: functional, cell-based
cells [5] = type: functional, cell-based; remark: listed apart in the source
Nonstructural protein 1 = Nonstructural protein 1 (Influenza A virus, UniProt Q194T2); type: functional, Influenza A virus (A/California/07/2009(H1N1))
[6] = target: Sentrin-specific protease 1 (Homo sapiens, UniProt Q9P0U3); experiment: Dose response confirmation of small molecule inhibitors of the catalytic domain of the SUMO protease, SENP1 in a FRET assay.; type: functional; conditions: read-out: IC50_Mean
[7] = Luminescent dose response cell-based high throughput screening assay for inhibitors of the Janus kinase 2 mutant JAK2V617F. [Related pubchem assays: 1446 (Primary screen.), 1521 (Confirmation assay.), 1486 (Counter screen.)]; type: functional
[8] = microbe, parasite or virus in culture; type: functional; conditions: Mycobacterium tuberculosis
[9] = viability of PTEN-deleted HCT116 cells – cell-based, HCT116 PTEN knockout, dose response (AID 1047); type: functional;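 further: HCT116 colon tumor cells with PTEN knocked out; cells exposed to compound for 60 hours before readout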
[10] = viability of HCT116 lacking mutant beta-catenin – cell-based, human colon tumor, dose response (AID 1045); type: functional;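 further: HCT116 colon tumor cells with beta catenin knocked out; cells exposed to compound for 60 hours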
[11] = activation of miR-122 Renilla sensor silencing – cell-based, Huh7 psiCHECK-miR122, Renilla luciferase, cherry-picked, dose response (AID 651956); type: functional;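 further: huh7 hepatoma cells stably carrying a psiCHECK-2 miR-122 sensor plasmid; renilla luciferase signal reporting endogenous miR-122 activity after 48 h compound exposure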
[12] = general mammalian cell viability loss – inhibitor set, cherry-pick, set 2, cytotoxicity control for miR-122 modulator project, dose response (AID 720697); type: functional, cell-based
[13] = general mammalian cell viability loss – activator set, cherry-pick, cytotoxicity control for miR-122 modulator project, dose response (AID 720690); type: functional, cell-based;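 further: HEK293T human cells scored for general mammalian cytotoxicity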
Cytochrome P450 1A2 = target: T4, Cytochrome P450 1A2 (Homo sapiens, UniProt P05177);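 further: PubChem cytochrome P450 panel assay, CYP1A2 panel member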
T4 sequence (P05177 whole entry): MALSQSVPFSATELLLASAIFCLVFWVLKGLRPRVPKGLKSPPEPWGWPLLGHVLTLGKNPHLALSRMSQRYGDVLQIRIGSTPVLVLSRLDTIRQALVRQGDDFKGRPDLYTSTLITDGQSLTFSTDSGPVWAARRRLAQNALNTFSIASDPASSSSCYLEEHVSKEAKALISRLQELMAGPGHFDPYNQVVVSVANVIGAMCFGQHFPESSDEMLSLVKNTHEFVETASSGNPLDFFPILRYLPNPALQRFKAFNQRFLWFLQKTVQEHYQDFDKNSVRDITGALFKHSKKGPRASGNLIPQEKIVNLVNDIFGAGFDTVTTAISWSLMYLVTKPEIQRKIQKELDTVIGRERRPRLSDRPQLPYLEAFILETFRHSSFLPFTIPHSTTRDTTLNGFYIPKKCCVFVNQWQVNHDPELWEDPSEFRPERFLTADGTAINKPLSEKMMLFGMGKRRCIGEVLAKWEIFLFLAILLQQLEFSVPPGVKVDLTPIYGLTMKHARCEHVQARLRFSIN

Cytochrome P450 3A4 = Cytochrome P450 3A4 (Homo sapiens, UniProt P08684);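 further: CYP3A4 tested as one member of a cytochrome P450 panel screen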
[14] = target: T5, Delta-type opioid receptor (Homo sapiens, UniProt P41143); experiment: HTS Image-Based Screen for Antagonists of the DOR Receptor. [Related pubchem assays (depositor defined):AID1777, AID1785, AID1786, AID2133]; type: functional
Mu-type opioid receptor = Mu-type opioid receptor (Homo sapiens, UniProt P35372); experiment: HTS Image-Based Screen for Agonists of the MOR Receptor. [Related pubchem assays (depositor defined):AID1777, AID1785, AID1786, AID2133]; type: functional;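 further: imaging of beta-arrestin GFP recruitment into spots after receptor activation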
[15] = target: T5, Delta-type opioid receptor; experiment: HTS Image-Based Screen for Agonists of the DOR Receptor. [Related pubchem assays (depositor defined):AID1777, AID1786, AID2133]; type: functional
Beta-galactosidase [16] = target: T6, Beta-galactosidase (Escherichia coli, UniProt Q8VNN2); experiment: PubChem AID 485352; type: functional
[17] = target: T7, Type-1 angiotensin II receptor (Homo sapiens, UniProt P30556); experiment: antagonism of angiotensin II type 1 receptor – cell-based, uHTS hits, selectivity assay for APJ receptor antagonist project, dose response (AID 463214); type: functional;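 further: antagonist potency against angiotensin II stimulated AT1 response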
T7 sequence (P30556 whole entry): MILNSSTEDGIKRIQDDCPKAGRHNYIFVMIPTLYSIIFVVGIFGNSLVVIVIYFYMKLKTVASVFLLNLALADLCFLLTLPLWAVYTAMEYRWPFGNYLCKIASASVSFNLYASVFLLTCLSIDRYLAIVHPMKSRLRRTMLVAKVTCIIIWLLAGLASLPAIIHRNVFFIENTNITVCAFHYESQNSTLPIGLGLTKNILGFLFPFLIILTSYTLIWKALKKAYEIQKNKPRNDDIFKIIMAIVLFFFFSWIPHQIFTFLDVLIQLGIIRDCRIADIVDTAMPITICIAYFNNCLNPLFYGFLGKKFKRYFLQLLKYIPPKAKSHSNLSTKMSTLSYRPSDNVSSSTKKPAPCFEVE

[18] = target: T8, Kappa-type opioid receptor (Homo sapiens, UniProt P41145); type: functional
Beta-galactosidase [19] = target: T6, Beta-galactosidase; type: functional
[20] = target: T8, Kappa-type opioid receptor; type: functional; remark: listed apart in the source
[21] = target: Glucose-6-phosphate 1-dehydrogenase (Homo sapiens, UniProt P11413); experiment: inhibition of Homo sapiens G6PD, dose series – biochemical, fluorescence, selectivity assay for P. falciparum G6PD inhibitor project, dose response (AID 504792); type: functional
CHO = CHO cell viability loss, potency – luminescence, cytotoxicity control for TLR9-MyD88 binding inhibitor project, dose response (AID 588339); type: functional, cell-based, hamster; conditions: Cricetulus griseus;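 further: CHO cells stably coexpressing TLR9 and MyD88 fusions from primary screen; compound exposure lasted 48 hours before viability readout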
Vero = experiment: viability of Vero cells under compound – cytotoxicity control for flavivirus capping enzyme inhibitors (AID 588742); type: functional; conditions: Chlorocebus sabaeus
Beta Lactamase [22] = target: T9, Beta Lactamase (Pseudomonas aeruginosa, UniProt Q932Y6); experiment: BLA reporter interference, concentration series – BLA reporter cells, FRET fluorescence, artefact control for TLR9-MyD88 binding inhibitor project, dose response (AID 588341); type: cell-based;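 further: cell based assay in CHO-K1 cells stably expressing beta-lactamase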
Genome polyprotein = Genome polyprotein (dengue virus type 2, UniProt P29990); experiment: flavivirus cap methylation enzyme inhibition – biochemical, confirmation dose response, primary screen (AID 588689); type: functional
[23] = Fluorescence-based cell-based high throughput dose response assay for inhibitors of the interaction of nucleotide-binding oligomerization domain containing 2 (NOD2) and the receptor-interacting serine-threonine kinase 2 (RIPK2).; type: functional; conditions: Homo sapiens
Beta Lactamase [24] = target: T9, Beta Lactamase; experiment: BLA reporter interference, concentration series – BLA reporter cells, FRET fluorescence, artefact control for NOD2-RIPK2 interaction inhibitor project, dose response (AID 651552); type: functional, cell-based
[25] = mouse fibroblast viability loss – cell-based, cherry-pick samples, set 2, cytotoxicity control for T. cruzi growth inhibitor project, dose response (AID 651817); type: functional; conditions: NIH3T3
[26] = target: T10, Probable nicotinate-nucleotide adenylyltransferase (Staphylococcus aureus (strain N315), UniProt P65502); type: functional, Staphylococcus aureus subsp. aureus N315;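 on IC50 Mean: confirmatory dose-response retesting of NadD inhibitor hits first found in an ultra-high-throughput screen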
[27] = target: T10, Probable nicotinate-nucleotide adenylyltransferase; type: functional, Staphylococcus aureus subsp. aureus N315; conditions: read-out: IC50_Mean
[28] = inhibition of ARNT PAS-B/TACC3 complex formation – biochemical, AlphaScreen, cherry-picked samples, confirmation (AID 651703); type: functional, Homo sapiens;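 further: His-tagged ARNT PAS-B domain paired with GST-TACC3 E629A dimer coactivator fragment; potency of inhibitors that break up the complex and lower AlphaScreen signal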

T9 sequence (Q932Y6 whole entry): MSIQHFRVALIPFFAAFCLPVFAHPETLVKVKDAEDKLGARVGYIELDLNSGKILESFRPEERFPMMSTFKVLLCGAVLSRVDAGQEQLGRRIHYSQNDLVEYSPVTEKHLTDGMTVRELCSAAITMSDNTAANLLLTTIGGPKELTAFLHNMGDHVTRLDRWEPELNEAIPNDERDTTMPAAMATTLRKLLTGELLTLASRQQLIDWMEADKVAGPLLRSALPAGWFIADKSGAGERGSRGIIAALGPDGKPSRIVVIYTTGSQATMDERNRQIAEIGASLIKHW
T8 sequence (P41145 whole entry): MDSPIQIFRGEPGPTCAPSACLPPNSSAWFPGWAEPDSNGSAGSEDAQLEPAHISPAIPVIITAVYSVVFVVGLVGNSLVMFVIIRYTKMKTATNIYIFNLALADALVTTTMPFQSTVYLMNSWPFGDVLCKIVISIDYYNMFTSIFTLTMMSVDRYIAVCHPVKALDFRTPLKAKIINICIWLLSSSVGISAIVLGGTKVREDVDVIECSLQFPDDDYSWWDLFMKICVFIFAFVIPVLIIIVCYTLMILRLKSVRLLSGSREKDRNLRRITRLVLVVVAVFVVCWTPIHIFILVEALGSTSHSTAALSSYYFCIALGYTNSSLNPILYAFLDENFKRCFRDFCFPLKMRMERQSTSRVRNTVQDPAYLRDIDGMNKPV
T6 sequence (Q8VNN2 whole entry): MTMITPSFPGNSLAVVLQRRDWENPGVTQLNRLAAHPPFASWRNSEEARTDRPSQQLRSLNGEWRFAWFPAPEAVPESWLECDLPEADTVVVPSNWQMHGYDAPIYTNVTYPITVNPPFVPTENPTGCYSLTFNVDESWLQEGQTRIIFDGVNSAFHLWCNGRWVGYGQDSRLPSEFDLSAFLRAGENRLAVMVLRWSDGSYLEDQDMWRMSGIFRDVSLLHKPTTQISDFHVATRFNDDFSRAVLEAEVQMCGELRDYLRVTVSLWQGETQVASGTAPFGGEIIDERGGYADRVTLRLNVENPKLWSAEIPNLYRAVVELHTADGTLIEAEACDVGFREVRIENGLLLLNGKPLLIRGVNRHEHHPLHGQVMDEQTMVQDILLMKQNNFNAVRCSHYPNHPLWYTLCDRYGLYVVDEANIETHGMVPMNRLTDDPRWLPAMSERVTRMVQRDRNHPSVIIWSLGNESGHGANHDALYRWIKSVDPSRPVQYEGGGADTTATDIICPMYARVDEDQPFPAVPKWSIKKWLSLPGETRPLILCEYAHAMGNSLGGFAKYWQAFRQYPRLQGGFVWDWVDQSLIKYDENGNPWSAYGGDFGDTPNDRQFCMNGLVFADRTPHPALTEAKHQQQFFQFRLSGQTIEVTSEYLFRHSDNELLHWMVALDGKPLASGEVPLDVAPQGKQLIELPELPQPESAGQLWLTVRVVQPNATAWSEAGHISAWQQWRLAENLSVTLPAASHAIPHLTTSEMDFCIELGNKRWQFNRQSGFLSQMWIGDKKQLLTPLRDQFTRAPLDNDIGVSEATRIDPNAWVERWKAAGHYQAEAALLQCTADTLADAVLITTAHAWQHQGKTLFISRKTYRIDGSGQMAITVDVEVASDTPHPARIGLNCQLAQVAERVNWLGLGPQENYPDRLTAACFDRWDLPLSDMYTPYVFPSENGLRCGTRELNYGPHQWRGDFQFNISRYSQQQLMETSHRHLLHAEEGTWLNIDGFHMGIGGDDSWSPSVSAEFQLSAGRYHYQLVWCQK
Genome polyprotein, sequence (P29990 2492-3391 limits assumed): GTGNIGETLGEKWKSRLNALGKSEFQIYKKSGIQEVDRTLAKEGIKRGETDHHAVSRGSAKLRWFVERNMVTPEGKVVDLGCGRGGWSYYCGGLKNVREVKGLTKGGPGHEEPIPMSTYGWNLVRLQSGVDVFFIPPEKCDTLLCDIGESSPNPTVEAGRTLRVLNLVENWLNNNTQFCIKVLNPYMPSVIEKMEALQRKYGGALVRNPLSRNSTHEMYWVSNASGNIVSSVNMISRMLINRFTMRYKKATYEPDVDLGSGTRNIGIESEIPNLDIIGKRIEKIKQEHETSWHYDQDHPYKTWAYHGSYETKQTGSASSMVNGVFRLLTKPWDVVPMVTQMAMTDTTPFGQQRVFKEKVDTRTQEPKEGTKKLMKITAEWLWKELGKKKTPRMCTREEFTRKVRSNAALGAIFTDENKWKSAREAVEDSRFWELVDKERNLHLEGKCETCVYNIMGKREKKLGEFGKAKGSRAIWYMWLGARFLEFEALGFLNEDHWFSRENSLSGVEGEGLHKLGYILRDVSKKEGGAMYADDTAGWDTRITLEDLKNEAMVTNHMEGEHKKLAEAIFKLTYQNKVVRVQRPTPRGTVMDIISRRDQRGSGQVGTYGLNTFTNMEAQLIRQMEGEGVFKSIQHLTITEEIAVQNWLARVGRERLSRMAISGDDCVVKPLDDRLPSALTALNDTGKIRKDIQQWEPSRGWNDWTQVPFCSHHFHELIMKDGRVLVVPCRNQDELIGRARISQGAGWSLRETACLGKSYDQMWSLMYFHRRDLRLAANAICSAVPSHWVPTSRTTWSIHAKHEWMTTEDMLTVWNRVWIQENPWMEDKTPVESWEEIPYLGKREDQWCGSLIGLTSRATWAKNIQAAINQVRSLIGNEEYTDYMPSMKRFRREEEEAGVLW
T10 sequence (P65502 whole entry): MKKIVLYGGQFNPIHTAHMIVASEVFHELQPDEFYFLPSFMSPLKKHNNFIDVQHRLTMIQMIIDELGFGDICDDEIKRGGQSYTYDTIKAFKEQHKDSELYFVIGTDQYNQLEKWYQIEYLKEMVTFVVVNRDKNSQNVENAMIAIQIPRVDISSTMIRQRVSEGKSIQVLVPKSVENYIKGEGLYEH
T5 sequence (P41143 whole entry): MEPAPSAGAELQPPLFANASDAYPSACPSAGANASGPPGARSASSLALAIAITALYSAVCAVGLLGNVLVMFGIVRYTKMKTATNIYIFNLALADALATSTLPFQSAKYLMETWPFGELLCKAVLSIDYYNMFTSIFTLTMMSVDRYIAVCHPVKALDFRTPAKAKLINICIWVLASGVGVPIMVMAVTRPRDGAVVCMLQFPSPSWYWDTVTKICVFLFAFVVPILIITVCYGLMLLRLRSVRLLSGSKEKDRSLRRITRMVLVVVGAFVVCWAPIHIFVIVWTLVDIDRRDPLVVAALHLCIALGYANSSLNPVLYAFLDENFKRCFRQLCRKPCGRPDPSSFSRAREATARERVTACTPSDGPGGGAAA
Sentrin-specific protease 1, sequence (Q9P0U3 whole entry, the tested form may be a part): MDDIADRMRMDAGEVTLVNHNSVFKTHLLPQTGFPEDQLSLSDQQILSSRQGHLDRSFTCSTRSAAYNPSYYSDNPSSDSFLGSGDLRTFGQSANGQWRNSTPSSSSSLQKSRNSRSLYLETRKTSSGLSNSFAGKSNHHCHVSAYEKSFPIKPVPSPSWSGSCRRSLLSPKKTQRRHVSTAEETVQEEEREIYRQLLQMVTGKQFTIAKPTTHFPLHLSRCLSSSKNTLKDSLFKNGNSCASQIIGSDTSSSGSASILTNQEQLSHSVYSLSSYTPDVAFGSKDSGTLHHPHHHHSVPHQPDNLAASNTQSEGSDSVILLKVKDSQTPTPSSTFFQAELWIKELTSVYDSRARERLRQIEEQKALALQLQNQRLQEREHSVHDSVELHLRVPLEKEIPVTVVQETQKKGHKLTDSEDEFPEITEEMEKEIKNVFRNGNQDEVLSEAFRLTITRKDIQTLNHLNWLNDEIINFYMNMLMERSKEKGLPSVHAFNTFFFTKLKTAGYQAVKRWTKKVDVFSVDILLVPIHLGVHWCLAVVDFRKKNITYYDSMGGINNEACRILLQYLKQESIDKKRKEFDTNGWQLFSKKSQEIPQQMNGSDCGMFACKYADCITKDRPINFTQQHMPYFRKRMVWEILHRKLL
Cytochrome P450 3A4, sequence (P08684 whole entry): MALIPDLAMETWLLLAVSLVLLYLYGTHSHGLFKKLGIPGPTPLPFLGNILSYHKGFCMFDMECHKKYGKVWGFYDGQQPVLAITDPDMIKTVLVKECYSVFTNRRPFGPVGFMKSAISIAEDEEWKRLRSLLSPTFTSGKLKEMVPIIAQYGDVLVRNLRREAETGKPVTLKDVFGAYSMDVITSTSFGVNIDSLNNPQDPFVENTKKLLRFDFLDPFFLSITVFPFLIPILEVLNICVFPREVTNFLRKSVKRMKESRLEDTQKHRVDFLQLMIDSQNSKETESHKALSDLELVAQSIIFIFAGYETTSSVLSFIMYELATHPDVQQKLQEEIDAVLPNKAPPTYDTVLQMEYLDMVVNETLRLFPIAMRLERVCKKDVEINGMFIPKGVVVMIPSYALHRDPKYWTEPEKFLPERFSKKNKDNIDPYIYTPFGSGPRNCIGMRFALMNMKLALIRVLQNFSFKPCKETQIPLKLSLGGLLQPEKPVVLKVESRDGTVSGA
Glucose-6-phosphate 1-dehydrogenase, sequence (P11413 whole entry, the tested form may be a part): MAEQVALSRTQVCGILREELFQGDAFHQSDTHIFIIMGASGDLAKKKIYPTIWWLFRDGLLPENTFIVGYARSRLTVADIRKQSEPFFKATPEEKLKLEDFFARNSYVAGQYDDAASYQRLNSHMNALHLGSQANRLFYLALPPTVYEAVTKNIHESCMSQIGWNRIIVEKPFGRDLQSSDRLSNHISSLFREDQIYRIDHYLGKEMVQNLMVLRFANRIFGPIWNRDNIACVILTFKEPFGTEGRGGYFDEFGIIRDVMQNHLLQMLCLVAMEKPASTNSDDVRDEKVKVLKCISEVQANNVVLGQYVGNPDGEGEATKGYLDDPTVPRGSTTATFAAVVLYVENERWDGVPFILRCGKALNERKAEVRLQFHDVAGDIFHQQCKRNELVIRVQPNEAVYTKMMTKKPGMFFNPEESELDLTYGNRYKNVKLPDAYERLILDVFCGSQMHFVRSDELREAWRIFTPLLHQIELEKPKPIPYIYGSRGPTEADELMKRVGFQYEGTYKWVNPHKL

CC1=NN(c2ccc(C)cc2C)C(=O)C1C(c1cccc(O)c1)C1C(=O)N(c2ccc(C)cc2C)N=C1C (stereo unspecified)
active: AC50 [1] 1.09 µM | EC50 (Protein RecA) 0.524 µM | IC50 [2] 12.6 µM | IC50 [3] 30 µM

CCOC(=O)/C(C#N)=C/C=C1\C=Cc2ccccc2N1CC
> 350 µM (not active): EC50 (cells [4]) | EC50 (cells [5])
active: IC50 (Nonstructural protein 1) > 100 µM | IC50 [6] 6.27 µM

CCCn1c(CC)nc([N+](=O)[O-])c1S(=O)(=O)c1ccccc1
inconclusive: AC50 (Cytochrome P450 1A2) 22.4 µM | AC50 (Cytochrome P450 3A4) 25.1 µM
inactive: AC50 [1] > 380 µM | EC50 (Protein RecA) > 380 µM
active: IC50 [7] 0.996 µM | CC50 [8] 13.1 µM | EC50 [9] 5.85 µM | EC50 [10] 6.09 µM | AC50 [11] 24.8 µM | AC50 [12] 4.03 µM | AC50 [13] 7.65 µM

CCC(=O)OCCNc1cc(Sc2nc3ccccc3s2)c2nonc2c1[N+](=O)[O-]
inactive: IC50 [14] > 32 µM | EC50 (Mu-type opioid receptor) > 32 µM | EC50 (Beta-galactosidase [16]) > 40 µM | EC50 (Beta-galactosidase [19]) > 31.5 µM | IC50 [21] > 80 µM | IC50 (Beta Lactamase [22]) 10.5 µM | IC50 (Beta Lactamase [24]) 12.2 µM
active: EC50 [15] < 0.5 µM | IC50 [17] 3.51 µM | IC50 [18] 8.16 µM | IC50 (CHO) 3.25 µM | AC50 [1] 2.36 µM | CC50 (Vero) 18.5 µM | EC50 (Protein RecA) 0.572 µM | IC50 (Genome polyprotein) 29.6 µM | IC50 [23] 1.53 µM
< 4.49: pIC50 [20]

C[C@@H]1CN([C@@H](C)CO)C(=O)Cc2cc(NS(=O)(=O)c3ccc(Cl)cc3)ccc2O[C@H]1CN(C)S(=O)(=O)c1ccc(Cl)cc1
active: AC50 [25] 19.4 µM

O=C(O)COc1ccccc1/C=N/NC(=O)c1cc(-c2ccc(Cl)cc2)nc2ccccc12
active: IC50 (Genome polyprotein) 39.5 µM | IC50 [26] 5.1 µM | IC50 [27] 34.2 µM | AC50 [28] 75.2 µM

Source: ChEMBL document CHEMBL1201862, “PubChem BioAssay data set” (2004)
